Source: patent publication US20230085307A1, “PYRIDAZINONE COMPOUND AND HERBICIDE” (NISSAN CHEMICAL CORPORATION, priority 2019, published 2023)

Experiments:
green foxtail [1] = test: Test Example 4: herbicidal effect by soil treatment (Table 19, symbol G); type: in vivo, green foxtail (Setaria viridis); conditions: amount of applied herbicide 320 g/ha
Procedure, shortened: (§1)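 Seeds were sown in sterilized diluvial soil and covered with about 1.5 cm of soil. An emulsion formulation diluted with water to a predetermined herbicide amount was sprayed evenly onto the soil surface. Plants grew in a greenhouse at 25° C. to 30° C., and the effect was scored three weeks after application using criteria from an earlier test.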

late watergrass = test: Test Example 1: herbicidal activity, application before weed generation under submerged conditions (Table 16, symbol A); type: in vivo, late watergrass (Echinochloa oryzicola); conditions: 320 g/ha applied herbicide
Procedure, shortened: (§2)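 Alluvial soil was flooded to 4 cm depth, weed seeds were sown mixed and 2.5-leaf rice seedlings were transplanted. On sowing day, the compound's emulsion, diluted in water to a set dose, was applied to the water surface. Plants grew at 25–30 °C and were scored 0–5 after three weeks.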

southern crabgrass [2] = test: Test Example 5: herbicidal effect by foliage application, plastic box (Table 20, symbol F); type: in vivo, southern crabgrass (Digitaria ciliaris); conditions: foliage application, 320 g/ha, three weeks after application
Procedure, shortened: (§3)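 Plants sown in sterilized diluvial soil and grown 14 days in a greenhouse at 25° C to 30° C, then sprayed on the foliage with the compound's emulsion diluted in water to a predetermined herbicide amount. Injury to weeds and crops scored three weeks after application on a visual rating scale.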

barnyard grass [3] = test: Test Example 5: herbicidal effect by foliage application, plastic box (Table 20, symbol H); type: in vivo, barnyard grass (Echinochloa crus-galli); conditions: foliage application, 320 g/ha, three weeks after application
Procedure, shortened: as §3

rice flat sedge = test: Test Example 3: herbicidal effect by foliage application, Wagner pot (Table 18, symbol E); type: in vivo, rice flat sedge (Cyperus iria); conditions: 320 g/ha
Procedure, shortened: (§4)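 Plants were sown in alluvial soil held under 0.1–0.5 cm standing water and grown 14 days in a greenhouse at 25–30 °C. An emulsifiable formulation, water-diluted to the set dose, was then sprayed onto the foliage, and effects were scored three weeks later using previously defined criteria.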

blackgrass [4] = test: Test Example 5: herbicidal effect by foliage application, plastic box (Table 20, symbol J); type: in vivo, blackgrass (Alopecurus myosuroides); conditions: foliage application, 320 g/ha, three weeks after application
Procedure, shortened: as §3

barnyard grass [5] = test: Test Example 3: herbicidal effect by foliage application, Wagner pot (Table 18, symbol H); type: in vivo, barnyard grass (Echinochloa crus-galli); conditions: 320 g/ha
Procedure, shortened: as §4

wild oat [6] = test: Test Example 5: herbicidal effect by foliage application, plastic box (Table 20, symbol I); type: in vivo, wild oat (Avena fatua); conditions: foliage application, 320 g/ha, three weeks after application
Procedure, shortened: as §3

chickweed [7] = test: Test Example 4: herbicidal effect by soil treatment (Table 19, symbol P); type: in vivo, common chickweed (Stellaria media); conditions: amount of applied herbicide 320 g/ha
Procedure, shortened: as §1

velvetleaf [8] = test: Test Example 4: herbicidal effect by soil treatment (Table 19, symbol M); type: in vivo, velvetleaf (Abutilon theophrasti); conditions: amount of applied herbicide 320 g/ha
Procedure, shortened: as §1

Italian ryegrass [9] = test: Test Example 5: herbicidal effect by foliage application, plastic box (Table 20, symbol K); type: in vivo, Italian ryegrass (Lolium multiflorum); conditions: foliage application, 320 g/ha, three weeks after application
Procedure, shortened: as §3

blackgrass [10] = test: Test Example 4: herbicidal effect by soil treatment (Table 19, symbol J); type: in vivo, blackgrass (Alopecurus myosuroides); conditions: amount of applied herbicide 320 g/ha
Procedure, shortened: as §1

persian speedwell [11] = test: Test Example 5: herbicidal effect by foliage application, plastic box (Table 20, symbol R); type: in vivo, Persian speedwell (Veronica persica); conditions: foliage application, 320 g/ha, three weeks after application
Procedure, shortened: as §3

Chinese sprangletop = test: Test Example 3: herbicidal effect by foliage application, Wagner pot (Table 18, symbol D); type: in vivo, chinese sprangletop (Leptochloa chinensis); conditions: 320 g/ha
Procedure, shortened: as §4

lambsquarters [12] = test: Test Example 5: herbicidal effect by foliage application, plastic box (Table 20, symbol O); type: in vivo, lambsquarters (Chenopodium album); conditions: foliage application, 320 g/ha, three weeks after application
Procedure, shortened: as §3

persian speedwell [13] = test: Test Example 4: herbicidal effect by soil treatment (Table 19, symbol R); type: in vivo, Persian speedwell (Veronica persica); conditions: amount of applied herbicide 320 g/ha
Procedure, shortened: as §1

southern crabgrass [14] = test: Test Example 4: herbicidal effect by soil treatment (Table 19, symbol F); type: in vivo, southern crabgrass (Digitaria ciliaris); conditions: amount of applied herbicide 320 g/ha
Procedure, shortened: as §1

windgrass [15] = test: Test Example 4: herbicidal effect by soil treatment (Table 19, symbol L); type: in vivo, windgrass (Apera spica-venti); conditions: amount of applied herbicide 320 g/ha
Procedure, shortened: as §1

false cleavers = test: Test Example 4: herbicidal effect by soil treatment (Table 19, symbol Q); type: in vivo, false cleavers (Galium spurium); conditions: amount of applied herbicide 320 g/ha
Procedure, shortened: as §1

velvetleaf [16] = test: Test Example 5: herbicidal effect by foliage application, plastic box (Table 20, symbol M); type: in vivo, velvetleaf (Abutilon theophrasti); conditions: foliage application, 320 g/ha, three weeks after application
Procedure, shortened: as §3

chickweed [17] = test: Test Example 5: herbicidal effect by foliage application, plastic box (Table 20, symbol P); type: in vivo, common chickweed (Stellaria media); conditions: foliage application, 320 g/ha, three weeks after application
Procedure, shortened: as §3

oval-leafed pondweed = test: Test Example 1: herbicidal activity, application before weed generation under submerged conditions (Table 16, symbol C); type: in vivo, oval-leafed pondweed (Monochoria vaginalis); conditions: 320 g/ha applied herbicide
Procedure, shortened: as §2

redroot pigweed [18] = test: Test Example 5: herbicidal effect by foliage application, plastic box (Table 20, symbol N); type: in vivo, redroot pigweed (Amaranthus retroflexus); conditions: foliage application, 320 g/ha, three weeks after application
Procedure, shortened: as §3

windgrass [19] = test: Test Example 5: herbicidal effect by foliage application, plastic box (Table 20, symbol L); type: in vivo, windgrass (Apera spica-venti); conditions: foliage application, 320 g/ha, three weeks after application
Procedure, shortened: as §3

green foxtail [20] = test: Test Example 5: herbicidal effect by foliage application, plastic box (Table 20, symbol G); type: in vivo, green foxtail (Setaria viridis); conditions: foliage application, 320 g/ha, three weeks after application
Procedure, shortened: as §3

Japanese bulrush = test: Test Example 1: herbicidal activity, application before weed generation under submerged conditions (Table 16, symbol B); type: in vivo, Japanese bulrush (Schoenoplectus juncoides); conditions: 320 g/ha applied herbicide
Procedure, shortened: as §2

wild oat [21] = test: Test Example 4: herbicidal effect by soil treatment (Table 19, symbol I); type: in vivo, wild oat (Avena fatua); conditions: amount of applied herbicide 320 g/ha
Procedure, shortened: as §1

redroot pigweed [22] = test: Test Example 4: herbicidal effect by soil treatment (Table 19, symbol N); type: in vivo, redroot pigweed (Amaranthus retroflexus); conditions: amount of applied herbicide 320 g/ha
Procedure, shortened: as §1

lambsquarters [23] = test: Test Example 4: herbicidal effect by soil treatment (Table 19, symbol O); type: in vivo, lambsquarters (Chenopodium album); conditions: amount of applied herbicide 320 g/ha
Procedure, shortened: as §1

barnyard grass [24] = test: Test Example 4: herbicidal effect by soil treatment (Table 19, symbol H); type: in vivo, barnyard grass (Echinochloa crus-galli); conditions: amount of applied herbicide 320 g/ha
Procedure, shortened: as §1

Italian ryegrass [25] = test: Test Example 4: herbicidal effect by soil treatment (Table 19, symbol K); type: in vivo, Italian ryegrass (Lolium multiflorum); conditions: amount of applied herbicide 320 g/ha
Procedure, shortened: as §1

CCCC(=O)Oc1c(C)nn(C)c(=O)c1-c1c(-c2ccc(F)c(C)c2)sc2ccccc12 [1-052]
herbicidal effect rating, G: green foxtail (green foxtail [1]): 4 (Herbicidal rate of 70% or more and less than 90%)
Herbicidal effect on A: late watergrass (grade 0-5) (late watergrass): 3 (Herbicidal rate of 40% or more and less than 70%)
herbicidal effect grade, F: southern crabgrass (southern crabgrass [2]): 2 (Herbicidal rate of 20% or more and less than 40%)
herbicidal effect grade, H: barnyard grass (barnyard grass [3]): 3 (Herbicidal rate of 40% or more and less than 70%)
herbicidal effect on E (rice flat sedge), rating 0-5 (rice flat sedge): 5 (Herbicidal rate of 90% or more (almost completely withered))
herbicidal effect grade, J: blackgrass (blackgrass [4]): 0 (Herbicidal rate of 5% or less (almost no effect))
herbicidal effect on H (barnyard grass), rating 0-5 (barnyard grass [5]): 3 (Herbicidal rate of 40% or more and less than 70%)
herbicidal effect grade, I: wild oat (wild oat [6]): 0 (Herbicidal rate of 5% or less (almost no effect))
herbicidal effect rating, P: chickweed (chickweed [7]): 4 (Herbicidal rate of 70% or more and less than 90%)
herbicidal effect rating, M: velvetleaf (velvetleaf [8]): 0 (Herbicidal rate of 5% or less (almost no effect))
herbicidal effect grade, K: Italian ryegrass (Italian ryegrass [9]): 0 (Herbicidal rate of 5% or less (almost no effect))
herbicidal effect rating, J: blackgrass (blackgrass [10]): 0 (Herbicidal rate of 5% or less (almost no effect))
herbicidal effect grade, R: persian speedwell (persian speedwell [11]): 1 (Herbicidal rate of 5% or more and less than 20%)
herbicidal effect on D (Chinese sprangletop), rating 0-5 (Chinese sprangletop): 2 (Herbicidal rate of 20% or more and less than 40%)
herbicidal effect grade, O: lambsquarters (lambsquarters [12]): 3 (Herbicidal rate of 40% or more and less than 70%)
herbicidal effect rating, R: persian speedwell (persian speedwell [13]): 3 (Herbicidal rate of 40% or more and less than 70%)
herbicidal effect rating, F: southern crabgrass (southern crabgrass [14]): 1 (Herbicidal rate of 5% or more and less than 20%)
herbicidal effect rating, L: windgrass (windgrass [15]): 0 (Herbicidal rate of 5% or less (almost no effect))
herbicidal effect rating, Q: false cleavers (false cleavers): 0 (Herbicidal rate of 5% or less (almost no effect))
herbicidal effect grade, M: velvetleaf (velvetleaf [16]): 5 (Herbicidal rate of 90% or more (almost completely withered))
herbicidal effect grade, P: chickweed (chickweed [17]): 5 (Herbicidal rate of 90% or more (almost completely withered))
Herbicidal effect on C: oval-leafed pondweed (grade 0-5) (oval-leafed pondweed): 3 (Herbicidal rate of 40% or more and less than 70%)
herbicidal effect grade, N: redroot pigweed (redroot pigweed [18]): 3 (Herbicidal rate of 40% or more and less than 70%)
herbicidal effect grade, L: windgrass (windgrass [19]): 0 (Herbicidal rate of 5% or less (almost no effect))
herbicidal effect grade, G: green foxtail (green foxtail [20]): 5 (Herbicidal rate of 90% or more (almost completely withered))
Herbicidal effect on B: Japanese bulrush (grade 0-5) (Japanese bulrush): 1 (Herbicidal rate of 5% or more and less than 20%)
herbicidal effect rating, I: wild oat (wild oat [21]): 0 (Herbicidal rate of 5% or less (almost no effect))
herbicidal effect rating, N: redroot pigweed (redroot pigweed [22]): 0 (Herbicidal rate of 5% or less (almost no effect))
herbicidal effect rating, O: lambsquarters (lambsquarters [23]): 2 (Herbicidal rate of 20% or more and less than 40%)
herbicidal effect rating, H: barnyard grass (barnyard grass [24]): 3 (Herbicidal rate of 40% or more and less than 70%)
herbicidal effect rating, K: Italian ryegrass (Italian ryegrass [25]): 1 (Herbicidal rate of 5% or more and less than 20%)
